Values joined by “and” are separate entries in the source; they are usually repeats but may differ in a detail not shown here. Identical values can stand only once.
Tested on: BDF1 mice, Adenocarcinoma 755 s.c., tumor weight T/C
Experiment: NCI In Vivo Anticancer Drug Screen. Data for tumor model Adenocarcinoma 755 (subcutaneous) in B6D2F1 (BDF1) mice
Conditions: endpoint: mean tumor weight, vehicle: carboxymethylcellulose (CMC), higher = larger tumour
Outline: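 Tumor-bearing mice receive test compound while controls get vehicle alone. Antitumor effect is scored from survival or tumor dimensions as a T/C quotient.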

With CCn1cnc2c(=S)nc[nH]c21 the T/C (dose: 0.75 mg/kg/injection, schedule: Q01DX011 (ip)) was 100 % of control, the T/C (dose: 0.75 mg/kg/injection, schedule: Q#A X022 (ip)) was 18 % of control and the T/C (dose: 1.5 mg/kg/injection, schedule: Q01DX006 (iv)) was 121 % of control. For the same molecule, the T/C (dose: 1.5 mg/kg/injection, schedule: Q01DX011 (im)) was 14 % of control, the T/C (dose: 1.5 mg/kg/injection, schedule: Q01DX011 (sc)) was 39 % of control and the T/C (dose: 1.5 mg/kg/injection, schedule: Q#A X022 (ip)) was 1 % of control. The T/C (dose: 3.0 mg/kg/injection, schedule: Q01DX006 (iv)) was 22 % of control, the T/C (dose: 3.0 mg/kg/injection, schedule: Q01DX011 (im)) was 5 % of control and the T/C (dose: 3.0 mg/kg/injection, schedule: Q01DX011 (ip)) was 6 % of control and 19 % of control. The T/C (dose: 3.0 mg/kg/injection, schedule: Q01DX011 (sc)) was 17 % of control, the T/C (dose: 3.0 mg/kg/injection, schedule: Q#A X022 (ip)) was 1 % of control and the T/C (dose: 4.5 mg/kg/injection, schedule: Q03DX004 (ip)) was 24 % of control. The T/C (dose: 4.6 mg/kg/injection, schedule: Q01DX011 (ip)) was 58 % of control, the T/C (dose: 4.62 mg/kg/injection, schedule: Q01DX011 (ip)) was 1 % of control and the T/C (dose: 6.0 mg/kg/injection, schedule: Q01DX006 (iv)) was 15 % of control. For the same molecule, the T/C (dose: 6.0 mg/kg/injection, schedule: Q01DX011 (im)) was 1 % of control, the T/C (dose: 6.0 mg/kg/injection, schedule: Q01DX011 (ip)) was 4 % of control and 13 % of control and the T/C (dose: 6.0 mg/kg/injection, schedule: Q01DX011 (sc)) was 3 % of control. The T/C (dose: 6.0 mg/kg/injection, schedule: Q#A X022 (ip)) was 1 % of control, the T/C (dose: 9.0 mg/kg/injection, schedule: Q03DX004 (ip)) was 23 % of control and the T/C (dose: 9.2 mg/kg/injection, schedule: Q01DX011 (ip)) was 20 % of control. For the same molecule, the T/C (dose: 9.25 mg/kg/injection, schedule: Q01DX011 (ip)) was 1 % of control, the T/C (dose: 9.25 mg/kg/injection, schedule: Q01DX011 (oral)) was 1 % of control and the T/C (dose: 11.0 mg/kg/injection, schedule: Q07DX002 (ip)) was 53 % of control. For the same molecule, the T/C (dose: 12.0 mg/kg/injection, schedule: Q01DX006 (iv)) was 3 % of control, the T/C (dose: 12.0 mg/kg/injection, schedule: Q01DX011 (ip)) was 3 % of control and the T/C (dose: 18.0 mg/kg/injection, schedule: Q03DX004 (ip)) was 4 % of control. For the same molecule, the T/C (dose: 18.5 mg/kg/injection, schedule: Q01DX011 (ip)) was 6 % of control, the T/C (dose: 22.0 mg/kg/injection, schedule: Q07DX002 (ip)) was 33 % of control and the T/C (dose: 25.0 mg/kg/injection, schedule: Q01DX006 (iv)) was 2 % of control. The T/C (dose: 25.0 mg/kg/injection, schedule: Q01DX011 (ip)) was 1 % of control, the T/C (dose: 25.0 mg/kg/injection, schedule: Q01DX011 (sc)) was 1 % of control and the T/C (dose: 37.0 mg/kg/injection, schedule: Q01DX011 (ip)) was 2 % of control. For the same molecule, the T/C (dose: 37.0 mg/kg/injection, schedule: Q03DX004 (ip)) was 1 % of control, the T/C (dose: 44.0 mg/kg/injection, schedule: Q07DX002 (ip)) was 8 % of control and the T/C (dose: 75.0 mg/kg/injection, schedule: Q03DX004 (ip)) was 1 % of control. For the same molecule, the T/C (dose: 87.0 mg/kg/injection, schedule: Q07DX002 (ip)) was 4 % of control and 8 % of control and the T/C (dose: 350.0 mg/kg/injection, schedule: Q07DX002 (ip)) was 2 % of control.

Reference: PubChem BioAssay AID180 (DTP/NCI, 2004)
